We go through three substances from patent US20120276049A1, “Methods and compositions for amelioration of autoimmune disease using fusion proteins of anti-dendritic cell receptor antibody to peptide sequences” (President and Fellows of Harvard College, priority 2009, published 2012).

Data set [1] concerns the target DEC205 receptor (mouse), on splenic CD11c+ dendritic cells of SJL mice (mouse) (UniProt Q60767). As to the kind of experiment: cell-based or functional assay.
Data set [2] relates to PLP139-151-induced EAE in recipient SJL mice. As to the kind of experiment: Adoptive transfer of CD4+ T cells from preimmunized SJL mice, then EAE induction in recipients. The format is in vivo, mouse. The note with it: donors coimmunized with 500 μg copolymer. As for the experimental part:
SJL mice were preimmunized on day 10 i.p. with each of 1 μg fusion monoclonal antibodies: DEC205-PLP-specific (closed diamonds; αDEC205/PLP mAb CD4^+ T cells) or control GL117-PLP-specific (closed squares; GL117/PLP mAb CD4^+ T cells), or control treatment with 500 μg of the synthetic amino acid copolymer (poly (F,Y,A,K)n; closed light gray circles; PLP139-151+FYAK CD4^+ T cells) or no treatment (closed triangles). The 5×10^6 CD4+ T cells, enriched splenocytes obtained from preimmunized mice, were adoptively transferred i.v. into the tail veins of non-treated mice, followed by immunization on day 1 with 75 μg of PLP139-151 in CFA and PT i.v. the following day. Controls received PBS injections. Mean disease scores of five mice/group are shown. […]
SJL mice herein were preimmunized at day 10 i.p. with 1 μg of DEC205-PLP specific monoclonal antibodies (closed diamonds; αDEC205/PLP mAb) only or not treated (closed triangles) in a control group. Mice were monitored for clinical signs of EAE for 30 days. […]
SJL/J mice were preimmunized (day 10, 15, or 20) with 1 μg i.p. of fusion monoclonal antibodies (DEC205-PLP specific monoclonal antibodies, DEC205-HA specific monoclonal antibodies, DEC205 specific monoclonal antibodies alone, or GL117-PLP specific monoclonal antibodies). […] The mice were scored daily for 30 days. […]

Data set [3] deals with Experimental Autoimmune Encephalomyelitis (EAE, the mouse model of MS). The note with it: compared with Copaxone; cited from earlier work.
Data set [4] deals with patients with secondary progressive MS. The note with it: weekly s.c. 3 or 10 mg; 50 patients; cited from earlier work.
In data set [5] the test system is relapsing-remitting forms of MS. Particulars: cited from earlier work.
The conditions of data set [6]: in vivo; cited from earlier work.

Chain of UniProt Q60767 (Q60767 28-1723): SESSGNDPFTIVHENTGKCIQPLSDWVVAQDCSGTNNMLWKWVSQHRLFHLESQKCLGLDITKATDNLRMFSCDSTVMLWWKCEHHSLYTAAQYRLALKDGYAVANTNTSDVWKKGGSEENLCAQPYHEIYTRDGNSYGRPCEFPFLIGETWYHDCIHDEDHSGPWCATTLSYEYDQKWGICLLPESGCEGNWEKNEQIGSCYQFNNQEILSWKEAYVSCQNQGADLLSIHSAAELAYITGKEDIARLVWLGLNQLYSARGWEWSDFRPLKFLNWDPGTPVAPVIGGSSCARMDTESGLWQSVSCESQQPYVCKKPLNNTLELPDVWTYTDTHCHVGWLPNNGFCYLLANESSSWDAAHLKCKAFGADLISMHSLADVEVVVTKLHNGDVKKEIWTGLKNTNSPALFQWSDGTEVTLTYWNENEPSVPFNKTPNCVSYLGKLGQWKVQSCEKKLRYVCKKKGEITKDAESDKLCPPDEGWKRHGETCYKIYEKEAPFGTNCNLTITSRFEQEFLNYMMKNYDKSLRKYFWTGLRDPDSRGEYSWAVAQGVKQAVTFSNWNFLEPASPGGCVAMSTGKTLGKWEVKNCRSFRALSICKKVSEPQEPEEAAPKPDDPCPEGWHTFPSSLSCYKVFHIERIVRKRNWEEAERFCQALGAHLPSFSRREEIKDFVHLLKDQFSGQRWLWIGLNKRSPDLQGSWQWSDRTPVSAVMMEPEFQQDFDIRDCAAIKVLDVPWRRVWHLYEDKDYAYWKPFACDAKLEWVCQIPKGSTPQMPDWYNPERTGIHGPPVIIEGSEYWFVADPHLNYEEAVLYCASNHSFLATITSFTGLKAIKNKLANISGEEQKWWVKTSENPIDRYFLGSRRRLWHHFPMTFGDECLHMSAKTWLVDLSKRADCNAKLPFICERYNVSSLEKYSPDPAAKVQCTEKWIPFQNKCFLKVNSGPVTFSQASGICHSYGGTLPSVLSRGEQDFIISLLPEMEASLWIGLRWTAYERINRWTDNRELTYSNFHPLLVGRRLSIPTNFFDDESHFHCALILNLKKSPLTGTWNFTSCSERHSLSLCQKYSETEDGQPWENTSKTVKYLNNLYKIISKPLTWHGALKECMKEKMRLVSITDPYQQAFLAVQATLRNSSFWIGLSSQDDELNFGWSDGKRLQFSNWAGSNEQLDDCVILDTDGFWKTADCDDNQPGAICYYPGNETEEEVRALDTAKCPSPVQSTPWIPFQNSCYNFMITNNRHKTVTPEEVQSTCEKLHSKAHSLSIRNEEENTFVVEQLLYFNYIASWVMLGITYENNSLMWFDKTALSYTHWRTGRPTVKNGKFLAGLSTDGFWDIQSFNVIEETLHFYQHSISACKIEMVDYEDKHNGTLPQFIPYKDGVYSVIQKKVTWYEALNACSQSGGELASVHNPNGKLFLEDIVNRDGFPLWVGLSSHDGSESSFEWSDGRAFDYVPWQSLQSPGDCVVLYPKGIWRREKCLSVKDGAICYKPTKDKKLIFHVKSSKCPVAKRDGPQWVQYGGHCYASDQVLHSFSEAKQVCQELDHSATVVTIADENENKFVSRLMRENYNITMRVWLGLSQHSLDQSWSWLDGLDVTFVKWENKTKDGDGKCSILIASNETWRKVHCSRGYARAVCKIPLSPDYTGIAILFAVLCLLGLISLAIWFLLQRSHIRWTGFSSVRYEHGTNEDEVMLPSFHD

“anti-DEC205-PLP139-151 fusion monoclonal antibody (cloned NLDC-145 with PLP139-151 fused to the C terminus of the Ig heavy chain)” registered an IFN-γ secretion in day 3 coculture supernatants (cytokine bead array) in data set [1] of 10 fold.

poly (F,Y,A,K)n [FYAK]: the “EAE induction in recipients of CD4+ T cells” value in data set [2] is listed as “efficiently prevented EAE induction”. Besides, the “effectiveness in treatment of EAE” value in data set [3] was “far more effective than Copaxone”. Moreover, the “number of Gadolinium-enhancing lesions” value in data set [4] is given as “severely reduce”.

With poly(Y, E, A, K)n [Copaxone ®], in data set [5], the “reduction of relapse rate” value was 30%. The side effects entry in data set [6] is “severe injection”.
